Reference: patent US6861440B2, “DPP IV inhibitors” (Hoffmann-La Roche Inc., priority 2001, dated 2005)

The molecules below were run against T1, human DPP-IV (Homo sapiens, UniProt P27487) (assay: DPP-IV activity assay (fluorogenic or colorimetric substrate), IC50 determination). Settings: natural human DPP-IV from human plasma pool or recombinant human DPP-IV; 37° C., pH 7.8.
T1 construct: made in house; host or cells: Pichia pastoris
T1 sequence (P27487 31-766): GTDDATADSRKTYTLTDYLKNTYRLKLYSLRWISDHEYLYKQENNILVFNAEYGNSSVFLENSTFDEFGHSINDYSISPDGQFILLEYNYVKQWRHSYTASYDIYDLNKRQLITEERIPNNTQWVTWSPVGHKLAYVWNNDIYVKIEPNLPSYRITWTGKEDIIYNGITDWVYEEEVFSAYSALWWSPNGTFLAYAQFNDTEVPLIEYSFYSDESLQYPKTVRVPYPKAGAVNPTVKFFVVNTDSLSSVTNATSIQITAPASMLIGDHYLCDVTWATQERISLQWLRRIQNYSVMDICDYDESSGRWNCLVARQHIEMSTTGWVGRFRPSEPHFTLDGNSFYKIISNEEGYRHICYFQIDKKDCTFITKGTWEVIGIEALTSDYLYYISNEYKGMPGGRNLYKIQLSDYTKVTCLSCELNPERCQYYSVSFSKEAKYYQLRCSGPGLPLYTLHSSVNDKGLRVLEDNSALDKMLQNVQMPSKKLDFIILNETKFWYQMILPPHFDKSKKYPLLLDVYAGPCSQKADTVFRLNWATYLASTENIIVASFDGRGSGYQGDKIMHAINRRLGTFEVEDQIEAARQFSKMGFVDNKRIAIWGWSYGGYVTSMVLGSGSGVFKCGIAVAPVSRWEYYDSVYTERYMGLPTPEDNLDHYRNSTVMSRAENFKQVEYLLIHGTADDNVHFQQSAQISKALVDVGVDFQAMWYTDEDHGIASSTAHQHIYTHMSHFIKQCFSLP
Assay type: biochemical
Description: Activity of DPP-IV inhibitors are tested with natural human DPP-IV derived from a human plasma pool or with recombinat human DPP-IV. Human citrate plasma from different donors is pooled, filterted through a 0.2 micron membrane under sterile conditions and aliquots of 1 ml are shock frozen and stored at −120° C. until used. In the calorimetric DPP-IV assay 5 to 10 μl human plasma and in the fluorometric assay 1.0 μl of human plasma in a total assay volume of 100 μl is used as an enzyme source. […] Human DPP-IV is expressed and purified from the cultur medium using conventional column chromatography including size exclusion and anion and cation chromatography. […] In the calorimetric DPP-IV assay 20 ng rec.-h DPP-IV and in the fluorometric assay 2 ng rec-h DPP-IV in a total assay volume of 100 μl is used as an enzyme source.
A 20 mM stock solution in 10% DMF/H2O is stored at −20° C. until use.
A 10 mM stock solution in 10% MeOH/H2O is stored at −20° C. until use.
Fluorescence is detected in a Perkin Elmer Luminescence Spectrometer LS 50B at an excitation wavelength of 400 nm and an emission wavelength of 505 nm continuously every 15 seconds for 10 to 30 minutes. Initial rate constants are calculated by best fit linear regression.
Initial rate constants are calculated by best fit linear regression.
DPP-IV activity assays are performed in 96 well plates at 37° C. in a total assay volume of 100 μl. The assay buffer consists of 50 mM Tris/HCl pH 7.8 containing 0.1 mg/ml BSA and 100 mM NaCl. Test compounds are solved in 100% DMSO, diluted to the desired concentration in 10% DMSO/H2O. The final DMSO concentration in the assay is 1% (v/v). […] Compounds are with (10 minutes at 37° C.) and without preincubation with the enzyme. Enzyme reactions are started with substrate application follwed by immediate mixing.
Kinetic parameters of the enzyme reaction are calculated at at least 5 different substrate concentrations and at least 5 different test compound concentrations.
An IC50 of 88 nM was found for `Cc1c(C)n(C[C@H](C)NCC(=O)N2CCC[C@H]2C#N)c2ccccc12` [Example 7, (2S)-1-{[(1S)-2-(2,3-Dimethyl-indol-1-yl)-1-methyl-ethylamino]-acetyl}-pyrrolidine-2-carbonitrile] in this work. An IC50 of 128 nM was found for `COc1cc2c(C(=O)C(F)(F)F)cn(C[C@H](C)NCC(=O)N3CCC[C@H]3C#N)c2cc1OC` [Example 23, (2S)-1-{[(1S)-2-(5,6-Dimethoxy-3-trifluoroacetyl-indol-1-yl)-1-methyl-ethylamino]-acetyl}-pyrrolidine-2-carbonitrile] in this work. An IC50 of 7 nM was found for `CC(C)(CNc1ccc(-c2cccc(C(F)(F)F)c2)cn1)NCC(=O)N1CCC[C@H]1C#N` [Example 119, (2S)-1-({1,1-Dimethyl-2-[5-(3-trifluoromethyl-phenyl)-pyridin-2-ylamino]-ethylamino}-acetyl)-pyrrolidine-2-carbonitrile] in this work. An IC50 of 1 nM was found for `CC(C)(CNc1cccc(-c2ccccc2)n1)NCC(=O)N1CCC[C@H]1C#N` [Example 129, (2S)-1-{[1,1-Dimethyl-2-(6-phenyl-pyridin-2-ylamino)-ethylamino]-acetyl}-pyrrolidine-2-carbonitrile] in this work. An IC50 of 1 nM was found for `Cc1cccc(-c2nc(CC(C)(C)NCC(=O)N3CCC[C@H]3C#N)c(C)[nH]2)c1` [Example 188, (2S)-1-{[1,1-Dimethyl-2-(5-methyl-2-m-tolyl-1H-imidazol-4-yl)-ethylamino]-acetyl}-pyrrolidine-2-carbonitrile] in this work.
